The assay addresses T1, 5-HT2C receptor (Homo sapiens, UniProt P28335).
T1 construct: β-galactosidase enzyme-complementation fragment (ProLink-type donor); host or cells: U2OS
Briefly: Functional activity: beta-arrestin2 recruitment to the 5-HT2C receptor in U2OS_HTR2C_β-Arrestin cells (DiscoverX). In kind it is cell-based. As to conditions: for Emax / % efficacy: relative efficacy: response as percentage of response to 10 μM 5-HT or maximal effect induced by 5-HT (defined as 100%); for EC50: U2OS_HTR2C_β-Arrestin cells, 1.5 h incubation, chemiluminescent β-galactosidase complementation readout, read-out: Potency (EC50) in functional assay. As to the method:
The functional activity of compounds of formula I was assayed by incubation with U2OS_HTR2C_β-Arrestin cells (DiscoverX, 93-0289C3) to induce beta-arrestin2 recruitment to the 5-HT2C receptor. The agonist-induced recruitment and proximity of the receptor and beta-arrestin2 leads to complementation and formation of active β-galactosidase. The enzyme complementation results in enzyme activity, which is measured following the termination of the agonist incubation using DiscoveRx's detection reagent, which contains a chemiluminescent substrate which produces a high intensity signal. Cells were plated and a medium-change to a 1% serum containing medium was performed 24 h later. The next day, test compounds were added and incubated for 1.5 h before addition of detection reagent.
The response produced was measured and compared with the response produced by 10 [mu]M 5-HT or the maximal effect induced by 5-HT (defined as 100%) to which it was expressed as a percentage response (relative efficacy). Dose response curves were constructed using Graphpad Prism (Graph Software Inc.) or using in house adapted software using a 4 parameter dose response model with variable slope (fit=(Bottom+(Top−Bottom)/(1+10^((Log EC50−x)*HillSlope))res=(y−fit)). Results are compiled in the table below.

Structures can show the parent of a compound that is named as a salt.

T1 sequence (P28335 33-458): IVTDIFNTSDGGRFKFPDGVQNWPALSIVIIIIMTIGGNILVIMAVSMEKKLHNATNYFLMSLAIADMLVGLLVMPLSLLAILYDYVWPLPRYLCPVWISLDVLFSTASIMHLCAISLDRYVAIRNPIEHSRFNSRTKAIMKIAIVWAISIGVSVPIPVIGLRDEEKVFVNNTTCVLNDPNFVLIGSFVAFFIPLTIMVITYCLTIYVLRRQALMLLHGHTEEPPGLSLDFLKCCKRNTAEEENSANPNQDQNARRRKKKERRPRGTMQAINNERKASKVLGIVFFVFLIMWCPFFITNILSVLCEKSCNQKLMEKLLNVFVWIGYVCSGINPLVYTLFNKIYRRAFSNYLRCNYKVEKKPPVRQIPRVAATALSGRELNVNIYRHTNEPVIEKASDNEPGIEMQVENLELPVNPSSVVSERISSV
T1 sequence (P32121 whole entry partner, the tested form may be a part): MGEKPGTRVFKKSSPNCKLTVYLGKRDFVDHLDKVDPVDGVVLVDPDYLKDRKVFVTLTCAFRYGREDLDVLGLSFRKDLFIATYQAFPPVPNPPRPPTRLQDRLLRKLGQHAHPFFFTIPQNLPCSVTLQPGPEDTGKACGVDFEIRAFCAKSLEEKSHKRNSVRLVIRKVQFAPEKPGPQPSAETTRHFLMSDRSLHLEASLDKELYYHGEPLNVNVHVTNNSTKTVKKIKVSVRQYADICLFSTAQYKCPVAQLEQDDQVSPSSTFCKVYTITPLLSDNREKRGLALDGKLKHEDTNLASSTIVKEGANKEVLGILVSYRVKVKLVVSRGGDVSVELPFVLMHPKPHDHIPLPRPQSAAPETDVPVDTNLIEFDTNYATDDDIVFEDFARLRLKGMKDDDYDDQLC

In the case of `c1cc2c3c(c1)N1CCC[C@@H]1CN3CCNC2` [Example 16, (R)-5,6,7,9,9a,10,11,12-Octahydro-4H-[1,4]diazepino[1,7,6-de]pyrrolo[1,2-a]quinoxaline (2,2,2-trifluoroacetate)], the Emax was 55%.
For `CC1(C)CCN2CCNCc3c(F)ccc1c32` [Example 49, 11-Fluoro-8,8-Dimethyl-2,3,4,6,7,8-hexahydro-1H-[1,4]diazepino[6,7,1-ij]quinoline], the EC50 fell in the range of 200 to 1000 nM and the maximal response (Emax) was 78%.
As to `Fc1ccc2c3c1N1CCCC1CN3CCNC2` (stereo not drawn) [Example 57, 1-Fluoro-5,6,7,9,9a,10,11,12-octahydro-4H-[1,4]diazepino[1,7,6-de]pyrrolo[1,2-a]quinoxaline, trifluoroacetic acid], the EC50 lay within 200 to 1000 nM and the Emax is 35%.
Turning to `c1cc2c3c(c1)N(CC1CC1)CCN3CCNC2` [Example 36, 1-(Cyclopropylmethyl)-2,3,5,6,7,8-hexahydro-1H-[1,4]diazepino[1,7,6-de]quinoxaline], the EC50 fell in the range of 200 to 1000 nM and the Emax was found to be 31%.
For `CC1CNCc2cccc3c2N1CCC31CCC1` (stereo not drawn) [Example 56, 4-Methyl-1,2,3,4,6,7-hexahydrospiro[[1,4]diazepino[6,7,1-ij]quinoline-8,1′-cyclobutane]] the same measures were less than 20 nM and 124%.
For `CC1CNCc2cccc3c2N1CCN3C1CCCC1` (stereo not drawn) [Example 43, 1-Cyclopentyl-5-methyl-2,3,5,6,7,8-hexahydro-1H-[1,4]diazepino[1,7,6-de]quinoxaline] the same measures were 200 to 1000 nM and 59%.
`CC1(C)CCN2CCNCc3cc(Cl)cc1c32` [Example 19, 10-Chloro-8,8-dimethyl-2,3,4,6,7,8-hexahydro-1H-[1,4]diazepino [6,7,1-ij]quinoline (2,2,2-trifluoroacetate)] displayed an Emax of 25%.
With `Cc1cc2c3c(c1)C1(CCC1)CCN3CCNC2` [Example 76, 10-Methyl-1,2,3,4,6,7-hexahydrospiro[[1,4]diazepino[6,7,1-ij]quinoline-8,1′-cyclobutane], trifluoroacetic acid], the EC50 was less than 20 nM and the Emax was found to be 98%.
For `CC1CNCc2cccc3c2N1CCC31CC1` (stereo not drawn) [Example 48, 4-Methyl-1,2,3,4,6,7-hexahydrospiro[[1,4]diazepino[6,7,1-ij]quinoline-8,1′-cyclopropane]] the same measures were 20 to 200 nM and 105%.
For `CCC1(C)CCN2CCNCc3cccc1c32.O=C(O)C(F)(F)F` (single isomer, unassigned) [Example 54, One enantiomer of 8-ethyl-8-methyl-2,3,4,6,7,8-hexahydro-1H-[1,4]diazepino[6,7,1-ij]-quinoline, trifluoroacetic acid], the concentration for a half-maximal effect (EC50) lay in the range of 200 to 1000 nM and the “% efficacy” value was 24%.
On to `c1cc2c3c(c1)N1CCC[C@H]1CN3CCNC2` [Example 17, (S)-5,6,7,9,9a,10,11,12-Octahydro-4H-[1,4]diazepino[1,7,6-de]pyrrolo[1,2-a]quinoxaline (2,2,2-trifluoroacetate)], for which the Emax was 84%.
On to `c1cc2c3c(c1)C1(CCCC1)CCN3CCNC2` [Example 6, 1,2,3,4,6,7-Hexahydrospiro[[1,4]diazepino [6,7,1-ij]quinoline-8,1′-cyclopentane]], for which the Emax was found to be 63%.
For `CC1CNCc2cccc3c2N1CC1CCCN31` (stereo not drawn) [Example 45, 7-Methyl-5,6,7,9,9^a,10,11,12-octahydro-4H-[1,4]diazepino[1,7,6-de]pyrrolo[1,2-a]quinoxaline], the EC50 is 20 to 200 nM and the Emax was found to be 77%.
On to `CC1CN2CCNCc3cccc(c32)C1(C)C` (single isomer, unassigned) [Example 27, Enantiomer of 7,8,8-trimethyl-1,2,3,4,7,8-hexahydro-6H-[1,4]diazepino[6,7,1-ij]quinoline]], for which the “% efficacy” value is listed as 87%.
With `CCC1(C)CCN2CCNCc3cccc1c32.O=C(O)C(F)(F)F` (single isomer, unassigned) [Example 55, Other enantiomer of 8-ethyl-8-methyl-2,3,4,6,7,8-hexahydro-1H-[1,4]diazepino[6,7,1-ij]quinoline, trifluoroacetic acid], the EC50 was in the range of 200 to 1000 nM and the “% efficacy” value stood at 26%.
Consider `CCN1CCN2CCNCc3cccc1c32` [Example 69, 1-Ethyl-2,3,5,6,7,8-hexahydro-1H-[1,4]diazepino[1,7,6-de]quinoxaline], for which the EC50 lay in the range of 200 to 1000 nM and the maximal effect (Emax) amounted to 54%.
For `c1cc2c3c(c1)N(C1CC1)CCN3CCNC2` [Example 40, 1-Cyclopropyl-2,3,5,6,7,8-hexahydro-1H-[1,4]diazepino[1,7,6-de]quinoxaline] the same measures were 20 to 200 nM and 131%.
Turning to `Cc1ccc2c3c1C1(CCC1)CCN3CCNC2` [Example 67, 9-Methyl-1,2,3,4,6,7-hexahydrospiro[[1,4]diazepino[6,7,1-ij]quinoline-8,1′-cyclobutane], trifluoroacetic acid], the EC50 was less than 20 nM and the Emax is 116%.
For `c1cc2c3c(c1)N1CC4CC4C1CN3CCNC2` (stereo not drawn) [Example 68, 4,5,6,7,9,9a,9b,10,10a,11-Decahydrocyclopropa[3,4]pyrrolo[1,2-a][1,4]diazepino[1,7,6-de]quinoxaline], the EC50 fell in the range of 20 to 200 nM and the Emax was 76%.
`c1cc2c3c(c1)C1(CCC1)CCN3CCNC2` [Example 25, 1′,2′,3′,4′,6′,7′-Hexahydrospiro[cyclobutane-1,8′-[1,4]diazepino [6,7,1-ij]quinoline], hydrochloride] registered an Emax of 90%.
For the molecule `CC1CNCc2cccc3c2N1CCN3C1CC1` (stereo not drawn) [Example 42, 1-Cyclopropyl-5-methyl-2,3,5,6,7,8-hexahydro-1H-[1,4]diazepino[1,7,6-de]quinoxaline], the EC50 is less than 20 nM and the Emax was 163%.
As for `CCCN1CCN2CCNCc3cccc1c32` [Example 70, 1-Propyl-2,3,5,6,7,8-hexahydro-1H-[1,4]diazepino[1,7,6-de]quinoxaline], the EC50 is 20 to 200 nM and the Emax stood at 63%.
In turn, `CC1(C)CCN2CCNCc3ccc(F)c1c32` [Example 22, 9-Fluoro-8,8-dimethyl-2,3,4,6,7,8-hexahydro-1H-[1,4]diazepino[6,7,1-ij]quinoline] displayed a maximal response (Emax) of 69%.
`CC1(C)CCN2CCNCc3cccc1c32` [Example 1, 8,8-Dimethyl-2,3,4,6,7,8-hexahydro-1H-[1,4]diazepino[6,7,1-ij]quinoline] returned an Emax of 71%.
`c1cc2c3c(c1)N(C1CCCC1)CCN3CCNC2` [Example 41, 1-Cyclopentyl-2,3,5,6,7,8-hexahydro-1H-[1,4]diazepino[1,7,6-de]quinoxaline]: the EC50 was 200 to 1000 nM and the Emax came out at 75%.
As for `CC1(C(F)(F)F)CCN2CCNCc3cccc1c32` (single isomer, unassigned) [Example 9, 8-Methyl-8-(trifluoromethyl)-2,3,4,6,7,8-hexahydro-1H-[1,4]diazepino [6,7,1-ij]quinoline], the “% efficacy” value was found to be 61%.
On to `c1cc2c3c(c1)N(C1COC1)CCN3CCNC2` [Example 35, 1-(Oxetan-3-yl)-2,3,5,6,7,8-hexahydro-1H-[1,4]diazepino[1,7,6-de]quinoxaline 2,2,2-trifluoroacetate], for which the EC50 lay in the range of 20 to 200 nM and the Emax was 112%.

The values are drawn from patent publication US10118926B2, “Tricyclic quinoline and quinoxaline derivatives” (AbbVie Deutschland GmbH & Co. KG, priority 2012, dated 2018).
